The record followed here is US9617256B2 (priority 2007, dated 2017).

Values after ≈ are worked out from the molar mass of the structure shown. Bounds are passed on as bounds.

In one assay the test system is AECO001 (ATCC25922). Kind of assay: MIC broth microdilution, AECO001. The class given is cell-based, E. coli. To be noted: for MIC: Escherichia coli, ATCC25922, read-out: MIC AECO001. The method in brief: (§1)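 Strains were grown overnight at 35° C. on Mueller-Hinton agar, suspended to 0.5 McFarland and diluted to a final 3×10^5–7×10^5 CFU/mL. They were then exposed to 2-fold serial drug dilutions in cation-adjusted Mueller-Hinton broth and incubated 18-24 hours at 35° C.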
In general terms: Dilution methods test growth across graded concentrations, often in twofold steps.

Assay [1] has as its system APAE006 in the presence of 8 micrograms per milliliter of polymyxin B nonapeptide. Format: cell-based, P. aeruginosa. The following applies: in the presence of 8 micrograms per milliliter of polymyxin B nonapeptide. In outline: (§2)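 Inocula prepared from 0.5 McFarland suspensions (final 3×10^5–7×10^5 CFU/mL) were added to 2-fold drug dilution series in cation-adjusted Mueller-Hinton broth. Plates stood 18-24 hours at 35° C. under ambient air.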

Assay [2] has as its system ASAU001 (laboratory strain of S. aureus, ATCC29213). Kind of assay: MIC broth microdilution, ASAU001. The class given is cell-based. To be noted: for MIC: Staphylococcus aureus, ATCC29213, read-out: MIC ASAU001. The method in brief:
as §1

The test system of the next assay is APAE001 (ATCC27853). Kind of assay: MIC broth microdilution, APAE001. The class given is cell-based, P. aeruginosa. To be noted: for MIC: Pseudomonas aeruginosa, ATCC27853, read-out: MIC APAE001, APAE001 is ATCC27853. The method in brief: as §1
Assay [3] deals with AABA1060 (clinical isolate of Acinetobacter baumannii). Kind of assay: MIC broth microdilution, AABA1060. The class given is cell-based. The following applies: for MIC: Acinetobacter baumannii, read-out: MIC AABA1060. The method in brief: as §1
Assay [4] concerns AECO063 (ATCC25922 bearing an acrAB mutation). Kind of assay: microbe, parasite or virus in culture. The class given is cell-based, E. coli. The following applies: for MIC: Escherichia coli, ATCC25922, read-out: MIC AECO063. In outline:
as §1

The test system of a further assay is AECO001 HSA AGP. Kind of assay: MIC broth microdilution, AECO001 HSA AGP. The class given is cell-based, E. coli. The following applies: for MIC: Escherichia coli. In outline: as §1
For assay [5], the system named is APAE006 (strain of P. aeruginosa in which all efflux pumps are inactivated). Kind of assay: microbe, parasite or virus in culture. To be noted: for MIC: Pseudomonas aeruginosa, read-out: MIC APAE006, P. aeruginosa, all efflux pumps inactivated. The class given is cell-based. The method in brief: as §2

As for “N-[1-((S)-Hydroxycarbamoyl)-2-methylamino-ethyl]-4-[(E)-4-(4-morpholin-4-ylmethyl-phenyl)-but-1-en-3-ynyl]-benzamide [Example 111-4]”, the “MIC AECO001” value with AECO001 (ATCC25922) (AECO001 is ATCC25922) is “A (MIC's of 2.0 μg/mL or less = A)”. Besides, the “MIC APAE006 + PMBN” value in assay [1] was “A (MIC's of 2.0 μg/mL or less = A)”. For the same molecule, in assay [2] (S. aureus ATCC29213), the “MIC ASAU001” value was “D (MIC's of greater than 64.0 μg/mL = D)”. In the assay with APAE001 (ATCC27853) (APAE001 is ATCC27853), the “MIC APAE001” value is “B (MIC's of greater than 2.0 μg/mL to 16.0 μg/mL = B)”. For the same molecule, the “MIC AABA1060” value in assay [3] (clinical isolate of Acinetobacter baumannii) was “C (MIC's of greater than 16.0 μg/mL to 64.0 μg/mL = C)”. Moreover, in assay [4] (ATCC25922 bearing an acrAB mutation), the “MIC AECO063” value was “A (MIC's of 2.0 μg/mL or less = A)”. Moreover, the “MIC AECO001 HSA AGP” value against AECO001 HSA AGP is reported as “C (MIC's of greater than 16.0 μg/mL to 64.0 μg/mL = C)”. Also, in assay [5] (P. aeruginosa, all efflux pumps inactivated), the “MIC APAE006” value was “A (MIC's of 2.0 μg/mL or less = A)”.
On to `C[C@@H](O)[C@H](NC(=O)c1ccc(N2CCC(c3ccc(CN4CCOCC4)cc3)CC2)cc1)C(=O)NO` [Example 42-7, N-((1S,2R)-2-Hydroxy-1-hydroxycarbamoyl-propyl)-4-[4-(4-morpholin-4-ylmethyl-phenyl)-piperidin-1-yl]-benzamide], for which the MIC with AECO001 (ATCC25922) is 16 to 64 µg/mL (≈ 32.2 to 129 µM); in assay [2] it was greater than 64 µg/mL; in the assay with APAE001 (ATCC27853), 16 to 64 µg/mL (≈ 32.2 to 129 µM); in assay [3], 16 to 64 µg/mL (≈ 32.2 to 129 µM); in assay [4], 16 to 64 µg/mL (≈ 32.2 to 129 µM); against AECO001 HSA AGP, 16 to 64 µg/mL (≈ 32.2 to 129 µM). Besides, in assay [5], the MIC is less than 2 µg/mL. The “MIC APAE006 + PMBN” value in assay [1] is “A (MIC's of 2.0 μg/mL or less = A)”.
`C[C@@H](O)[C@H](NC(=O)c1ccc(/C=C/C#Cc2ccc(CO)cc2)cc1)C(=O)NO` [Example 112-3]: the MIC with AECO001 (ATCC25922) was less than 2 µg/mL; in assay [2], 16 to 64 µg/mL (≈ 40.6 to 162 µM); in the assay with APAE001 (ATCC27853), 2 to 16 µg/mL (≈ 5.07 to 40.6 µM); in assay [3] it was 16 to 64 µg/mL (≈ 40.6 to 162 µM); in assay [4], less than 2 µg/mL; with AECO001 HSA AGP it was 16 to 64 µg/mL (≈ 40.6 to 162 µM). The MIC in assay [5] is less than 2 µg/mL. The “MIC APAE006 + PMBN” value in assay [1] was “A (MIC's of 2.0 μg/mL or less = A)”.
As for `C[C@@H](N)[C@H](NC(=O)c1ccc(C#C/C=C/c2ccc(CNC3CC3)cc2)cc1)C(=O)NO` [Example 102-2], the MIC with AECO001 (ATCC25922) was less than 2 µg/mL; in assay [2], 16 to 64 µg/mL (≈ 37 to 148 µM); with APAE001 (ATCC27853), 2 to 16 µg/mL (≈ 4.62 to 37 µM); in assay [3] it was 2 to 16 µg/mL (≈ 4.62 to 37 µM); in assay [4], less than 2 µg/mL; with AECO001 HSA AGP, 2 to 16 µg/mL (≈ 4.62 to 37 µM). The MIC in assay [5] is less than 2 µg/mL. In addition, the “MIC APAE006 + PMBN” value in assay [1] is “A (MIC's of 2.0 μg/mL or less = A)”.
In the case of `COC1CCN(Cc2ccc(C#Cc3ccc(C(=O)N[C@H](C(=O)NO)[C@@H](C)N)cc3)cc2)CC1` [Example 115-8], the MIC is less than 2 µg/mL with AECO001 (ATCC25922); greater than 64 µg/mL in assay [2]; less than 2 µg/mL in the assay on APAE001 (ATCC27853); 2 to 16 µg/mL (≈ 4.31 to 34.4 µM) in assay [3]; less than 2 µg/mL in assay [4]; 2 to 16 µg/mL (≈ 4.31 to 34.4 µM) against AECO001 HSA AGP. Further, the MIC in assay [5] was less than 2 µg/mL. In addition, the “MIC APAE006 + PMBN” value in assay [1] is “A (MIC's of 2.0 μg/mL or less = A)”.
For the molecule `C[C@H](O)[C@H](NC(=O)c1ccc(/C=C/C#Cc2ccc(CN3CCOCC3)cc2)cc1)C(=O)NO` [Example 110-5], the MIC in the assay with AECO001 (ATCC25922) is less than 2 µg/mL; in assay [2] it was greater than 64 µg/mL; in the assay with APAE001 (ATCC27853) it was 2 to 16 µg/mL (≈ 4.31 to 34.5 µM); in assay [3], 2 to 16 µg/mL (≈ 4.31 to 34.5 µM); in assay [4] it was less than 2 µg/mL; with AECO001 HSA AGP, 2 to 16 µg/mL (≈ 4.31 to 34.5 µM). For the same molecule, in assay [5], the MIC is less than 2 µg/mL. Further, the “MIC APAE006 + PMBN” value in assay [1] is listed as “A (MIC's of 2.0 μg/mL or less = A)”.
As to `C[C@@H](N)[C@H](NC(=O)c1ccc(C#CC#Cc2ccc(CO)cc2)cc1)C(=O)NO` [Example 82-3], the MIC in the assay with AECO001 (ATCC25922) was less than 2 µg/mL; in assay [2], 16 to 64 µg/mL (≈ 40.9 to 164 µM); with APAE001 (ATCC27853), less than 2 µg/mL; in assay [3] it was 2 to 16 µg/mL (≈ 5.11 to 40.9 µM); in assay [4], less than 2 µg/mL; with AECO001 HSA AGP, 16 to 64 µg/mL (≈ 40.9 to 164 µM). Further, the MIC in assay [5] is less than 2 µg/mL. Further, the “MIC APAE006 + PMBN” value in assay [1] is reported as “A (MIC's of 2.0 μg/mL or less = A)”.
`C[C@@H](N)[C@H](NC(=O)c1ccc(/C=C/C#Cc2ccccc2Cl)cc1)C(=O)NO` [Example 114-5]: the MIC in the assay on AECO001 (ATCC25922) is less than 2 µg/mL; in assay [2], 2 to 16 µg/mL (≈ 5.03 to 40.2 µM); in the assay on APAE001 (ATCC27853) it was 2 to 16 µg/mL (≈ 5.03 to 40.2 µM); in assay [3] it was less than 2 µg/mL; in assay [4], less than 2 µg/mL; in the assay on AECO001 HSA AGP, 2 to 16 µg/mL (≈ 5.03 to 40.2 µM). In addition, the MIC in assay [5] is less than 2 µg/mL. The “MIC APAE006 + PMBN” value in assay [1] is on record as “A (MIC's of 2.0 μg/mL or less = A)”.
